The record followed here is US6582952B1 (priority 1997, dated 2003).

The data set has as its system Bacillus licheniformis.

Molecules are shown by their SMILES. “Also recorded” adds a separate entry of the source.

As to `Nc1n[nH]c(=O)[nH]1` [amine, 5-amino-1,2,4-triazole-3-one], the “stability of the amine formed in the incubation mixture” value was “does not undergo any subsequent transformation; also recorded: stable”.
